Assay results published in patent US7112605B2, “Sulfonyl-containing 3,4-diaryl-3-pyrrolin-2-ones, preparation method, and medical use thereof” (Research Institute of Materia Medica Chinese Acadamy of …, priority 2002, dated 2006).

Legend:
Cyclooxygenase-1 = target: T1, Cyclooxygenase-1 (Mus musculus, UniProt P22437); experiment: COX-1 assay: calcimycin-stimulated 6-keto-PGF1 production in mouse peritoneal macrophages (RIA); format: cell-based, mice; settings: calcimycin 1 μmol/L 1 h, 6-keto-PGF1 by RIA
T1 construct: endogenous in cells; host or cells: thioglycollate-elicited peritoneal macrophages of male C57BL-6J mice
T1 sequence (P22437 27-602): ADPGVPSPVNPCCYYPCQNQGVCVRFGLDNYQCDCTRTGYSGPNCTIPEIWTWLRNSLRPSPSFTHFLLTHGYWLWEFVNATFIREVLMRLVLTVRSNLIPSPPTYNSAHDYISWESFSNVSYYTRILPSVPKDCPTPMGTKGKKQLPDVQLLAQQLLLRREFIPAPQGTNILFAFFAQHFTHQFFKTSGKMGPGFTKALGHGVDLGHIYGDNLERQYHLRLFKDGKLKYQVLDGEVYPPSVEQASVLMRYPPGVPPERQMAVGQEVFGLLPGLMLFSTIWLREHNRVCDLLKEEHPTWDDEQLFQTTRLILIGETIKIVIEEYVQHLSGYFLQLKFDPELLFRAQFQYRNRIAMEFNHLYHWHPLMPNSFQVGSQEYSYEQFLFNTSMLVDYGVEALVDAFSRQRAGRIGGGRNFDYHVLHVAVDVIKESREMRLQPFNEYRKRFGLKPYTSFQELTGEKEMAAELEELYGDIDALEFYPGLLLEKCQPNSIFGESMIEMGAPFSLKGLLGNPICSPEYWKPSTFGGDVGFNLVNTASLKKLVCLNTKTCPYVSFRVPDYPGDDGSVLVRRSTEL
Description: Cell culture: Adherent macrophages were harvested from the peritoneal cells of male mice (C57BL-6J, Level 2, from Experiment Animal Center, Academy of Military Medical Science) 3 d after the injection (ip) of brewer thioglycollate medium (5 mL/100 g body weight). Shortly, peritoneal cells obtained from 3˜4 mice were mixed and seeded in 48 well cell culture cluster (Costar) at a cell density of 1×10^9 cell/L in RPMI-1640 supplemented with 5% (v/v) newborn calf serum, 100 ku/L penicillin and […] streptomycin. After settlement for 2˜3 h, non-adherent cells were washed by D-Hanks' balanced salt solution. Then macrophages were cultured in RPMI-1640 without serum. Almost all of adherent cells were macrophages as assessed by Giemsa staining. Cell viability was examined by trypan blue dye exclusion. All incubation procedures were performed with 5% CO2 in humidified air at 37° C.
COX-1: assay Macrophages were incubated with test compound at different concentrations or solvent (Me2SO) for 1 h and were stimulated with calcimycin 1 μmol·L^−1 for 1 h. The amount of 6-keto-PGF1[…] (a stable metabolite of PGI2) in supernatants was measured by RIA according to manufacturer's guide. The inhibitory ratio was calculated as
(§1) [formula] Cs, Ct, Cc refer to 6-keto-PGF1[…] concentration in supernatants of calcimycin, test compound, and control groups, respectively.
(§2) Statistical analysis: Data were expressed as the mean±SD of more than three independent experiments. Dose-inhibitory effect curves were fit through “uphill dose response curves, variable slope” using Prism, GraphPad version3.00: […]

Cyclooxygenase-2 = target: T2, Cyclooxygenase-2 (Mus musculus, UniProt Q05769); experiment: COX-2 assay: LPS-stimulated PGE2 production in mouse peritoneal macrophages (RIA); format: cell-based, mice; settings: for IC50: mouse peritoneal macrophages, LPS 1 mg/L 9 h, PGE2 by RIA; for COX-1/COX-2: ratio of IC50 COX-1 to IC50 COX-2
T2 construct: endogenous in cells; host or cells: thioglycollate-elicited peritoneal macrophages of male C57BL-6J mice
T2 sequence (Q05769 18-604): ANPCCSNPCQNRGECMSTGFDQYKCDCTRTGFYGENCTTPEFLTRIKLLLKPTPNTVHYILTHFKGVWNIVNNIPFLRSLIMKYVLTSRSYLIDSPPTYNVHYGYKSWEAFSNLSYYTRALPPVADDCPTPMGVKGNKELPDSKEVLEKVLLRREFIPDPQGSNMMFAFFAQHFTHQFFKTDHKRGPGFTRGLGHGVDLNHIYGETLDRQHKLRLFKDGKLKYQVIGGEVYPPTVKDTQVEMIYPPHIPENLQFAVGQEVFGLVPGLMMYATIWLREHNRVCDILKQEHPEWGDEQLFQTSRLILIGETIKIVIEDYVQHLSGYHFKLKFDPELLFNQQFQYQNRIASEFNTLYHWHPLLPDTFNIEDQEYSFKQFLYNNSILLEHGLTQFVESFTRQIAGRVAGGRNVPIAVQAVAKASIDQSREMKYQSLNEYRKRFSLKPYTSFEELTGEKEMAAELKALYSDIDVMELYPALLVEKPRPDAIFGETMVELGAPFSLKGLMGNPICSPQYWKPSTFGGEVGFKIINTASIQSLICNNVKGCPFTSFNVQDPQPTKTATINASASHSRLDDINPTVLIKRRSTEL
Description: Cell culture: Adherent macrophages were harvested from the peritoneal cells of male mice (C57BL-6J, Level 2, from Experiment Animal Center, Academy of Military Medical Science) 3 d after the injection (ip) of brewer thioglycollate medium (5 mL/100 g body weight). […] After settlement for 2˜3 h, non-adherent cells were washed by D-Hanks' balanced salt solution. […] Cell viability was examined by trypan blue dye exclusion. All incubation procedures were performed with 5% CO2 in humidified air at 37° C.
COX-2 assay: Macrophages were incubated with test compound at different concentrations or solvent (Me2SO) for 1 h and were stimulated with LPS 1 mg/L for 9 h. The amount of PGE2 in supernatants was measured by RIA. The inhibitory ratio was calculated using the same formula as in COX-1 assay section. Cs, Ct, Cc refer to PGE2 concentration in supernatants of LPS, test compound, and control groups, respectively.
as §1, §2

| IC50 (Cyclooxygenase-1) | IC50 (Cyclooxygenase-2) | COX-1/COX-2 (Cyclooxygenase-2) | Structure (SMILES) |
| --- | --- | --- | --- |
| > 10 µM | 0.611 µM | – | CCCN1CC(c2ccc(F)cc2)=C(c2ccc(S(C)(=O)=O)cc2)C1=O [Example 106, N-Propyl-3-(4-methylsulfonylphenyl)-4-(4-fluorophenyl)-2,5-dihydropyrrole-2-one] |
| > 10 µM | 0.421 µM | – | CS(=O)(=O)c1ccc(C2=C(c3ccc(Cl)cc3)CN(C3CC3)C2=O)cc1 [Example 107, N-Cyclopropyl-3-(4-methylsulfonylphenyl)-4-(4-chlorophenyl)-2,5-dihydropyrrole-2-one] |
| > 10 µM | 0.421 µM | – | CN1CC(c2cccc(Cl)c2)=C(c2ccc(S(C)(=O)=O)cc2)C1=O [Example 109, N-Methyl-3-(4-methylsulfonylphenyl)-4-(3-chlorophenyl)-2,5-dihydropyrrole-2-one] |
| > 10 µM | 1.79 µM | – | CS(=O)(=O)c1ccc(C2=C(c3ccccc3)CN(C3CCCCC3)C2=O)cc1 [Example 112, N-Cyclohexyl-3-(4-methylsulfonylphenyl)-4-phenyl-2,5-dihydropyrrole-2-one] |
| > 10 µM | 0.998 µM | – | CS(=O)(=O)c1ccc(C2=C(c3cccc(F)c3)CN(C3CC3)C2=O)cc1 [Example 113, N-Cyclopropyl-3-(4-methylsulfonylphenyl)-4-(3-fluorophenyl)-2,5-dihydropyrrole-2-one] |
| 1.12 µM | 0.0142 µM | 78.9 | CN1CC(c2ccc(S(C)(=O)=O)cc2)=C(c2ccccc2)C1=O [Example 114, N-Methyl-3-phenyl-4-(4-methylsulfonylphenyl)-2,5-dihydropyrrole-2-one] |
| 0.468 µM | 0.0253 µM | 18.5 | CS(=O)(=O)c1ccc(C2=C(c3ccccc3)C(=O)N(C3CC3)C2)cc1 [Example 116, N-Cyclopropyl-3-phenyl-4-(4-methylsulfonylphenyl)-2,5-dihydropyrrole-2-one] |
| 0.119 µM | 0.0193 µM | – | CCCN1CC(c2ccc(S(C)(=O)=O)cc2)=C(c2cccc(C)c2)C1=O [Example 121, N-Propyl-3-(3-methylphenyl)-4-(4-methylsulfonylphenyl)-2,5-dihydropyrrole-2-one] |
| 0.221 µM | 0.0155 µM | 14.3 | Cc1cccc(C2=C(c3ccc(S(C)(=O)=O)cc3)CN(C3CC3)C2=O)c1 [Example 126, N-Cyclopropyl-3-(3-methylphenyl)-4-(4-methylsulfonylphenyl)-2,5-dihydropyrrole-2-one] |
| 0.143 µM | 0.0207 µM | – | CS(=O)(=O)c1ccc(C2=C(c3ccc(Cl)cc3)C(=O)N(C3CCCCC3)C2)cc1 [Example 127, N-Cyclohexyl-3-(4-chlorophenyl)-4-(4-methylsulfonylphenyl)-2,5-dihydropyrrole-2-one] |
| > 10 µM | 0.0664 µM | – | CS(=O)(=O)c1ccc(C2=C(c3ccc(F)cc3)C(=O)N(C3CC3)C2)cc1 [Example 128, N-Cyclopropyl-3-(4-fluorophenyl)-4-(4-methylsulfonylphenyl)-2,5-dihydropyrrole-2-one] |
| > 10 µM | 0.998 µM | – | CCCN1CC(c2cccc(Br)c2)=C(c2ccc(S(N)(=O)=O)cc2)C1=O [Example 132, N-Propyl-3-(4-aminosulfonylphenyl)-4-(3-bromophenyl)-2,5-dihydropyrrole-2-one] |
| – | 0.482 µM | – | CCCN1CC(c2cccc(Cl)c2)=C(c2ccc(S(N)(=O)=O)cc2)C1=O [Example 133, N-Propyl-3-(4-aminosulfonylphenyl)-4-(3-chlorophenyl)-2,5-dihydropyrrole-2-one] |
| > 10 µM | 0.564 µM | – | CCCN1CC(c2cccc(F)c2)=C(c2ccc(S(N)(=O)=O)cc2)C1=O [Example 135, N-Propyl-3-(4-aminosulfonylphenyl)-4-(3-fluorophenyl)-2,5-dihydropyrrole-2-one] |
| > 10 µM | 1.69 µM | – | NS(=O)(=O)c1ccc(C2=C(c3cccc(Cl)c3)CN(C3CC3)C2=O)cc1 [Example 137, N-Cylcopropyl-3-(4-aminosulfonylphenyl)-4-(3-chlorophenyl)-2,5-dihydropyrrole-2-one] |
